From PMC4936186 (Journal of medicinal chemistry, 2015)
Starred links: 1 amine or outer side, 2 acyl side, 3 side chain; linkers in the order of their positions; H or OH if unused. Positions of bridges follow the written chain, without caps; N, C: chain ends. Non-standard residues stand in square brackets, D forms with d. Residues, ends and D or L forms follow the SMILES beside them. X1 = O=C([C@@H]1C[C@H](n2cc(C3=CC=C[CH]3[Fe][CH]3C=CC=C3)nn2)CN1[*:1])[*:2]

Columns and labels:
HIV-1 gp120 = conditions: for Activity in SPR competition binding to gp120 (in words): dual receptor site (sCD4 and 17b) inhibition
trypsin = conditions: 37 °C, 5-hour incubation

SMILES	Enhancement of activity of macrocycle 7 vs 2 (HIV-1 gp120; SPR, shorter green linker (Asp instead of Glu))	Stability to trypsin (in words) (trypsin)	Stability to chymotrypsin (in words) (chymotrypsin; 37 °C, 5-hour incubation)	Stability to chymotrypsin (in words), 30 min (chymotrypsin; 37 °C, 30 minute incubation)	Intactness after chymotrypsin digestion (in words), 40 h (chymotrypsin; 40 h incubation, HPLC and ESI-MS)	Activity in SPR competition binding to gp120 (in words) (HIV-1 gp120)
CC[C@H](C)[C@@H]1NC(=O)[C@H](CC(N)=O)NC(=O)[C@@H](N)CC(=O)NCCCC[C@@H](C(N)=O)NC(=O)[C@H](Cc2c[nH]c3ccccc23)NC(=O)[C@@H]2C[C@H](n3cc(CCc4ccccc4)nn3)CN2C1=O [Compound 7]	almost two-fold enhanced activity	completely resistant	completely resistant	almost unchanged	remained intact	
CC[C@H](C)[C@H](N)C(=O)N[C@H]1CCC(=O)NCCCC[C@@H](C(N)=O)NC(=O)[C@H](Cc2c[nH]c3ccccc23)NC(=O)[C@@H]2C[C@H](n3cc(C4=CC=C[CH]4[Fe][CH]4C=CC=C4)nn3)CN2C(=O)[C@H]([C@@H](C)CC)NC(=O)[C@H](CC(N)=O)NC1=O (stereo partly shown) [Compound 4] (H-IENI[X1]WK-NH2; lactam 2-7; N-terminus and C-terminus assumed)						enhanced dual receptor site antagonizing activities compared to their non-ferrocene analogues
CC[C@H](C)[C@@H]1NC(=O)[C@H](CC(N)=O)NC(=O)[C@@H](N)CC(=O)NCCCC[C@@H](C(N)=O)NC(=O)[C@H](Cc2c[nH]c3ccccc23)NC(=O)[C@@H]2C[C@H](n3cc(C4=CC=C[CH]4[Fe][CH]4C=CC=C4)nn3)CN2C1=O (stereo partly shown) [Compound 9] (H-DNI[X1]WK-NH2; lactam 1-6; C-terminus assumed)						enhanced dual receptor site antagonizing activities compared to their non-ferrocene analogues
